Reference: the NIST ThermoML archive (doi:10.1021/je301370s)

Experiment: xn = mol fraction of the nth substance listed
Details: 101 kPa, Liquid, Taylor dispersion method, x1 = 0

Row | Compound | binary diffusion coefficient (298.2 K) [m2/s] | binary diffusion coefficient (303.2 K) [m2/s] | binary diffusion coefficient (313.2 K) [m2/s] | binary diffusion coefficient (323.2 K) [m2/s] | binary diffusion coefficient (333.2 K) [m2/s]
1 | NCCC(=O)O [3-aminopropanoic acid] + O | 9.37e-10 | 1.06e-09 | 1.35e-09 | 1.64e-09 | 1.97e-09
2 | NCCCCC(=O)O [5-aminovaleric acid] + O | 7.76e-10 | 8.73e-10 | 1.12e-09 | 1.39e-09 | 1.66e-09
3 | NCCCC(=O)O [4-aminobutanoic acid] + O | 8.38e-10 | 9.54e-10 | 1.2e-09 | 1.49e-09 | 1.79e-09

Next, values leading:

Row | binary diffusion coefficient (298.2 K) [m2/s] | binary diffusion coefficient (303.2 K) [m2/s] | binary diffusion coefficient (313.2 K) [m2/s] | binary diffusion coefficient (323.2 K) [m2/s] | binary diffusion coefficient (333.2 K) [m2/s] | Compound
4 | 7.28e-10 | 8.25e-10 | 1.05e-09 | 1.29e-09 | 1.57e-09 | NCCCCCC(=O)O [6-aminohexanoic acid] + O
5 | 6.88e-10 | 7.86e-10 | 1e-09 | 1.23e-09 | 1.48e-09 | NCCCCCCC(=O)O [7-aminoheptanoic acid] + O
